Here are results for eight compounds from patent US20240009211A1, “PHARMACEUTICAL COMPOSITION FOR TREATMENT OF LUNG CANCER COMPRISING CANNABIDIOL AND ANTICANCER AGENT AS ACTIVE INGREDIENTS, AND USE THEREOF” (NEOCANNBIO CO., LTD., priority 2022, published 2024).

Assay [1] relates to A549 cells. Description: Anti-cancer agents with or without CBD, WST-8 cell survival. Format: cell-based. The following applies: A549, 48 h. The method, then: (§1) After completion of culture, 1/10 of WST-8 solution (Quanti-Max™, BIOMAX, Korea) was added to the medium, and after additional culture at 37° C. for 1 hour, the cell survival rate was determined by measuring absorbance at 450 nm, and expressed as a percentage of the control without any treatment. The experiment was conducted independently and repeated three times.
(Tetrazolium assays rely on reduction of a dye to a coloured formazan, in cell work by metabolically active cells.)

For assay [2], the system named is A549 cells. Put plainly: Cancer cell toxicity of CBD, WST-8 cell survival. Format: cell-based. Particulars: Homo sapiens, A549, 48 h. The method, then: as §1, with “Specifically, A549 cells, a lung cancer cell line, were seeded in 96-well plates at a concentration of 1×10^4 cells/well, cultured in a 37° C., 10% CO2 incubator for 24 hours, then treated with CBD in a concentration-dependent manner and cultured under the same conditions for 48 hours. After” for “After”

In assay [3] the test system is A549 cells. Put plainly: Western blotting of apoptosis- and autophagy-related proteins after combined treatment. Format: cell-based. Particulars: A549, 24 h, etoposide combined with CBD (15 μM). The method, then:
After completion of culture, the cells were harvested and the proteins were quantified using the bradford assay (Bio-Rad, japan), and the proteins (30 ug/well) were separated by electrophoresis on NuPAGE 4-12% Bis-Tris gels (Invitrogen) and transferred to polyvinylidene difluoride (PVDF). Next, the PVDF membrane was reacted with a primary antibody (Monoclonal antibody, Cell signaling technology, USA) specific for PARP[Poly (ADP-ribose) polymerase], cleaved caspase9, cleaved caspase8, LC3B or GAPDH for 1 hour at room temperature, followed by reacting with an anti-rabbit secondary antibody (Cell signaling technology) for 1 hour. The antibodies bound to PVDF were visualized using ECL Advance Western Blotting Detection Reagents (GE Healthcare, UK) and LAS 4000 imaging system (Fujifilm, Japan).

Assay [4] deals with A549 cells. Description: cells. Particulars: Homo sapiens, A549, 48 h.
Assay [5] concerns A549 cells. Description: Apoptosis by Fluorescence Activated Cell Sorting (FACS). Format: cell-based. The following applies: A549, combined treatment of etoposide and CBD compared to individual treatment. The source says:
In addition, the apoptosis results of the combination treatment were re-validated using a Fluorescence Activated Cell Sorting (FACS) system.

Setting [6] is: Homo sapiens, read-out: IC50 (μM), with CBD (15 μM).
[7] abbreviates: Homo sapiens, read-out: IC50 (μM), without CBD.
The mark [8] stands for this setting: etoposide concentration-dependent.

As a reminder, the IC50 is the point on the concentration scale where inhibition reaches its midpoint. `CNC(=O)c1cc(Oc2ccc(NC(=O)Nc3ccc(Cl)c(C(F)(F)F)c3)c(F)c2)ccn1` [Regorafenib]: the IC50 is 4.11 µM in assay [1] (setting [6]) and 5.27 µM in assay [1] (setting [7]).

In assay [2], `C=C(C)[C@@H]1CCC(C)=C[C@H]1c1c(O)cc(CCCCC)cc1O` [CBD, 2-[(1R,6R)-3-methyl-6-prop-1-en-2-ylcyclohex-2-en-1-yl]-5-pentylbenzene-1,3-diol] gave an IC50 of 18.6 µM.

`CCC1=C[C@@H]2CN(C1)Cc1c([nH]c3ccccc13)[C@@](C(=O)OC)(c1cc3c(cc1OC)N(C)[C@H]1[C@@](O)(C(=O)OC)[C@H](OC(C)=O)[C@]4(CC)C=CCN5CC[C@]31[C@@H]54)C2` [Vinorelbine]: the results for the IC50 in assay [1] (setting [6]) and in assay [1] (setting [7]) were 6.38 µM and 12.4 µM, respectively.

`CNC(=O)c1cc(Oc2ccc(NC(=O)Nc3ccc(Cl)c(C(F)(F)F)c3)cc2)ccn1` [Sorafenib]: the IC50 in assay [1] (setting [6]) is 4.26 µM; in assay [1] (setting [7]), 8.97 µM.

Turning to `COc1cc2nccc(Oc3ccc(NC(=O)NC4CC4)c(Cl)c3)c2cc1C(N)=O` [Lenvatinib], the IC50 was 16.9 µM in assay [1] (setting [6]) and 19.9 µM in assay [1] (setting [7]).

With `COc1cc2nccc(Oc3ccc(NC(=O)C4(C(=O)Nc5ccc(F)cc5)CC4)cc3)c2cc1OC` [Cabozantinib (XL184), Cabozantinib], the IC50 was 4.14 µM in assay [1] (setting [6]) and 8.29 µM in assay [1] (setting [7]).

For the compound `COc1cc([C@@H]2c3cc4c(cc3[C@@H](O[C@@H]3O[C@@H]5CO[C@@H](C)O[C@H]5[C@H](O)[C@H]3O)[C@H]3COC(=O)[C@H]23)OCO4)cc(OC)c1O` [Etoposide (VP-16), etoposide], in assay [3], the “expression of Bcl-2 protein” value is reported as “decreased” and the “expression of autophagy-related protein LC3-II” value is on record as “increased”. Further, in assay [3] (setting [8]), the “expression of Bax protein” value is given as “increased”, the “expression of cleaved PARP protein” value is recorded as “increased”, the “expression of cleaved caspase8 protein” value is reported as “increased” and the “expression of cleaved caspase9 protein” value is “increased”. Besides, the IC50 in assay [4] (read-out: cytotoxicity (IC50) of etoposide alone) stood at 106 µM. For the same compound, in assay [4] (read-out: cytotoxicity (IC50) of etoposide upon combined treatment with CBD), the IC50 is 51.4 µM. The “number of early apoptotic cells” value in assay [5] was “significantly increased”. Further, in assay [1] (setting [6]), the IC50 was 51.4 µM.

As for `N.N.O=C([O-])C1(C(=O)[O-])CCC1.[Pt+2]` [Carboplatin], the IC50 in assay [1] (read-out: IC50 (μM), 48 h, with CBD, with CBD (15 μM)) was over 100 µM.
